From US7727977B2, “Kynurenine 3-hydroxylase inhibitors for the treatment of diabetes” (Merck Patent Gesellschaft mit beschrankter Haftung, priority 2003, dated 2010)
Marks after values point to notes of the source that are not given here.

Tests used:
kynurenine 3-hydroxylase = biological target: T1, kynurenine 3-hydroxylase (Rattus norvegicus, UniProt O88867); test: Inhibitory activity on kynurenine 3-hydroxylase in rat liver homogenate; assay type: biochemical; settings: test concentration not given
T1 construct: incubating 10 μL of the homogenate with NADPH (2 mM), kynurenine (100 μM); from tissue; host or cells: rat liver (pellet of the homogenate, resuspended)
Description: Study of the Inhibitory Activity on Kynurenine 3-hydroxylase in Rat Liver
Rat livers are homogenised (1:8 weight/volume) in a buffer solution comprising: • 0.25 M sucrose • 50 mM pH 7.4 Tris; • 1 mM EDTA; and • 1 mM DTT.
The homogenates are centrifuged for 10 minutes at 12 000 rpm. The pellets are resuspended in the buffer solution described above (1:2 weight/volume).
The kynurenine 3-hydroxylase inhibition is determined by incubating 10 μL of the homogenate with NADPH (2 mM), kynurenine (100 μM) and various concentrations of the test compounds in a final volume of 100 μL at 37° C. for 5 minutes.
The compounds are tested at concentrations of between 1 μM and 300 μM. 3,4-Dimethoxy-N-[4-(3-nitrophenyl)thiazol-2-yl]benzenesulfonamide is a compound from the company Hoffmann-LaRoche (Basle, see J. Med. Chem., 40 (1997), 4738). 30H-Kynurenine was tested according to the protocol described by Carpendo et al. (Neuroscience, 61 (1994), 237-244).
Each of the experiments is repeated once and the IC50 values (in μmol/L) are calculated and given in the form of a mean of these two experiments.
Results concerning representative examples of family Ih are given in Table II below, in which is indicated the measurement of the percentage of remaining kynurenine 3-hydroxylase activity relative to the control (100%).

primary hepatocytes [1] = test: Hepatic glucose production stimulated by AMPc/DEX in primary hepatocytes; assay type: cell-based, Wistar rats
Description: (§1) Study of the Effect on Glucose Production by the Liver Materials and Method:
The hepatocytes are isolated from the liver of Wistar rats fasted for 24 hours, according to the method described in Methods Cell Biol., 13 (1975), 29-83.
1) The hepatocytes are cultured for 16 to 18 hours in DMEM medium in the presence of AMP cyclase/dexamethasone at respective concentrations of 5×10^−5 M and 5×10^−7 M, with preincubation of the products at the test doses. After washing in pH 7.4 PBS buffer, the cells are incubated for three hours at 37° C. in a Krebs/AMPc/DEX buffer at the abovementioned concentrations. 0.1 μM insulin is used as reference substance. Two identical experiments are performed (Table III-1).
Quantification of the glucose is performed via a colorimetric method using glucose oxidase (IL test™ Glucose, Monarch 181633-80). The protein assay is performed on the rest of the incubation medium via the Lowry method (BIO-RAD Dc protein assay, BIO-RAD 5000116).
(§2) The results are expressed as nmoles of glucose produced per […] of proteins. The statistical test used is the t test.

primary hepatocytes [2] = test: Hepatic glucose production, basal lactate/pyruvate 2 hours, in primary hepatocytes; assay type: cell-based, Wistar rats; set-up: Hepatic glucose production: unit not given here; settings: for HGP % of control: Basal Lact/Pyr 2 hours; for hepatic glucose production in vitro (result in words): primary rat hepatocytes, summary of Tables III and IV
Description: as §1
After washing in pH 7.4 PBS buffer, the cells are incubated for two hours at 37° C. in a Krebs buffer free of glucose and of insulin, containing lactate/pyruvate (10/1 mM) in the presence or absence of the test compounds. 10 μM MICA (5-methoxyindole-2-carboxylic acid) is used as reference substance. Two identical experiments are performed (Table III-2).
The protein assay is performed on the rest of the incubation medium via the Lowry method (BIO-RAD Dc protein assay, BIO-RAD 5000116).
as §2

[3] = test system: perfused isolated pancreases from N0 STZ diabetic rats; test: Secretion of insulin and glucagon in perfused isolated pancreases from N0 STZ diabetic rats; assay type: cell-based; settings: absence of glucose, then 16.5 mM glucose; diabetic rat pancreas
Text: Study of the Effect on the Secretion of the Pancreatic Hormones Insulin and Glucagon, in N0STZ Diabetic Rats
The results are expressed as the mean±SEM (standard error of mean) of several experiments. The statistical test used is the Scheffé test.

T1 sequence (O88867 whole entry): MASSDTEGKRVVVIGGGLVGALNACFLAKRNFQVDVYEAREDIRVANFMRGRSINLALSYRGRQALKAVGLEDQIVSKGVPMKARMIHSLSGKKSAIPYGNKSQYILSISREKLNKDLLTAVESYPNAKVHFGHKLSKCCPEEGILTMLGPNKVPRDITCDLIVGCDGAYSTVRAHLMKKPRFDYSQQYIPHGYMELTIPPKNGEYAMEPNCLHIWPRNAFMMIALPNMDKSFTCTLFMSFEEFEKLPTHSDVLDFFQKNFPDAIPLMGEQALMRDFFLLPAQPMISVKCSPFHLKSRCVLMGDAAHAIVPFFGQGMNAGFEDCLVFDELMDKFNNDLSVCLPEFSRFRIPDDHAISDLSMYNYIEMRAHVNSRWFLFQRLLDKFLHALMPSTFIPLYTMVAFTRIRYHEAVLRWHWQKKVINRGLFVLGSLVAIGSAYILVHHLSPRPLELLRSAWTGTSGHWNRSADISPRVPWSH

Molecule | Remaining kynurenine 3-hydroxylase activity (% of control) (kynurenine 3-hydroxylase) [%] | further results
2-(2′-naphthylthio)-4-(4′-chlorophenyl)-4-oxobutanoic acid [Ih-30] | 24.3 | 
2-(2′-naphthylthio)-4-phenyl-4-oxobutanoic acid [Ih-1] | 23.2 | HGP % of control (primary hepatocytes [1]; 1 μM): 103 % of control; HGP % of control (primary hepatocytes [1]; 10 μM): 83 % of control; HGP % of control (primary hepatocytes [1]; 100 μM): 15 % of control; HGP % of control (primary hepatocytes [2]; 1 μM): 10 % of control; HGP % of control (primary hepatocytes [2]; 10 μM): 127 % of control; HGP % of control (primary hepatocytes [2]; 100 μM): 95 % of control; hepatic glucose production in vitro (result in words) (primary hepatocytes [2]): powerful inhibitors of hepatic glucose production in vitro
O=C(C[C@@H](Cc1ccccc1)C(=O)O)c1ccc(Cl)c(Cl)c1 (racemic) [Compound j, (R,S)-2-benzyl-4-(3′,4′-dichlorophenyl)-4-oxobutanoic acid] |  | Inhibition of hepatic glucose production (primary hepatocytes [2]; 1 μM): 30** %; Inhibition of hepatic glucose production (primary hepatocytes [2]; 10 μM): 51** %; Inhibition of hepatic glucose production (primary hepatocytes [2]; 100 μM): 65** %; hepatic glucose production in vitro (result in words) (primary hepatocytes [2]): powerful inhibitors of hepatic glucose production in vitro
O=C(C[C@@H](Cc1ccccc1)C(=O)O)c1ccc(F)cc1 [Compound i, (R)-2-benzyl-4-(4-fluorophenyl)-4-oxobutanoic acid] |  | Hepatic glucose production (primary hepatocytes [2]; 1 μM): 88 ± 7; Hepatic glucose production (primary hepatocytes [2]; 10 μM): 73 ± 4; Hepatic glucose production (primary hepatocytes [2]; 100 μM): 39 ± 3; hepatic glucose production in vitro (result in words) (primary hepatocytes [2]): powerful inhibitors of hepatic glucose production in vitro; glucagon secretion (result in words) [3]: stimulation; insulin secretion (result in words) [3]: stimulation
COc1ccc(S(=O)(=O)Nc2nc(-c3cccc([N+](=O)[O-])c3)cs2)cc1OC [Compound k, 3,4-dimethoxy-N-[4-(3-nitrophenyl)thiazol-2-yl]benzenesulfonamide, reference compound] |  | glucagon secretion (result in words) [3]: stimulation; insulin secretion (result in words) [3]: stimulation
O=C(CC(Sc1ccccc1)C(=O)O)c1ccccc1 (stereo not drawn) [Ih-2, 2-phenylthio-4-phenyl-4-oxobutanoic acid] | 70.4 | 
O=C(CC(Sc1ccc(F)cc1)C(=O)O)c1ccccc1 (stereo not drawn) [Ih-3, 2-(4′-fluorophenylthio)-4-phenyl-4-oxobutanoic acid] | 50.4 | 
O=C(CC(Sc1ccc(Cl)cc1)C(=O)O)c1ccccc1 (stereo not drawn) [Ih-4, 2-(4′-chlorophenylthio)-4-phenyl-4-oxobutanoic acid] | 34.8 | 
Cc1ccc(SC(CC(=O)c2ccccc2)C(=O)O)cc1 (stereo not drawn) [Ih-5, 2-(4′-methylphenylthio)-4-phenyl-4-oxobutanoic acid] | 45.4 | 
O=C(CC(SC1CCCCC1)C(=O)O)c1ccccc1 (stereo not drawn) [Ih-7, 2-cyclohexylthio-4-phenyl-4-oxobutanoic acid] | 81.3 | 
O=C(CC(SCc1ccccc1)C(=O)O)c1ccccc1 (stereo not drawn) [Ih-8, 2-benzylthio-4-phenyl-4-oxobutanoic acid] | 68.6 | 
CCOC(=O)C(CC(=O)c1ccccc1)Sc1ccccc1 (stereo not drawn) [Ih-9, ethyl 2-phenylthio-4-phenyl-4-oxobutanoate] | 80.8 | 
CCOC(=O)C(CC(=O)c1ccccc1)Sc1ccc(F)cc1 (stereo not drawn) [Ih-10, ethyl 2-(4′-fluorophenylthio)-4-phenyl-4-oxobutanoate] | 66.7 | 
CCOC(=O)C(CC(=O)c1ccccc1)Sc1ccc(Cl)cc1 (stereo not drawn) [Ih-11, ethyl 2-(4′-chlorophenylthio)-4-phenyl-4-oxobutanoate] | 44.6 | 
CCOC(=O)C(CC(=O)c1ccccc1)Sc1ccc(C)cc1 (stereo not drawn) [Ih-12, ethyl 2-(4′-methylphenylthio)-4-phenyl-4-oxobutanoate] | 63.3 | 
CCOC(=O)C(CC(=O)c1ccccc1)Sc1ccc(OC)cc1 (stereo not drawn) [Ih-13, ethyl 2-(4′-methoxyphenylthio)-4-phenyl-4-oxobutanoate] | 55.2 | 
CCOC(=O)C(CC(=O)c1ccccc1)SC1CCCCC1 (stereo not drawn) [Ih-15, ethyl 2-cyclohexylthio-4-phenyl-4-oxobutanoate] | 95.0 | 

Molecule | Remaining kynurenine 3-hydroxylase activity (% of control) (kynurenine 3-hydroxylase) [%] | further results
CCOC(=O)C(CC(=O)c1ccccc1)SCc1ccccc1 (stereo not drawn) [Ih-16, ethyl 2-benzylthio-4-phenyl-4-oxobutanoate] | 84.4 | 
COc1ccc(C(=O)CC(Sc2ccccc2)C(=O)O)cc1 (stereo not drawn) [Ih-17, 2-phenylthio-4-(4′-methoxyphenyl)-4-oxobutanoic acid] | 16.0 | 
COc1ccc(C(=O)CC(Sc2ccc(F)cc2)C(=O)O)cc1 (stereo not drawn) [Ih-18, 2-(4′-fluorophenylthio)-4-(4′-methoxyphenyl)-4-oxobutanoic acid] | 6.6 | 
COc1ccc(C(=O)CC(Sc2ccc(Cl)cc2)C(=O)O)cc1 (stereo not drawn) [Ih-19, 2-(4′-chlorophenylthio)-4-(4′-methoxyphenyl)-4-oxobutanoic acid] | 4.1 | 
COc1ccc(C(=O)CC(Sc2ccc(C)cc2)C(=O)O)cc1 (stereo not drawn) [Ih-20, 2-(4′-methylphenylthio)-4-(4′-methoxyphenyl)-4-oxobutanoic acid] | 13.3 | 
COc1ccc(SC(CC(=O)c2ccc(OC)cc2)C(=O)O)cc1 (stereo not drawn) [Ih-21, 2-(4′-methoxyphenylthio)-4-(4′-methoxyphenyl)-4-oxobutanoic acid] | 17.4 | 
COc1ccc(C(=O)CC(SC2CCCCC2)C(=O)O)cc1 (stereo not drawn) [Ih-23, 2-cyclohexylthio-4-(4′-methoxyphenyl)-4-oxobutanoic acid] | 38.1 | 
COc1ccc(C(=O)CC(SCc2ccccc2)C(=O)O)cc1 (stereo not drawn) [Ih-24, 2-benzylthio-4-(4′-methoxyphenyl)-4-oxobutanoic acid] | 18.9 | 
O=C(CC(Sc1ccccc1)C(=O)O)c1ccc(Cl)cc1 (stereo not drawn) [Ih-25, 2-phenylthio-4-(4′-chlorophenyl)-4-oxobutanoic acid] | 67.6 | 
O=C(CC(Sc1ccc(F)cc1)C(=O)O)c1ccc(Cl)cc1 (stereo not drawn) [Ih-26, 2-(4′-fluorophenylthio)-4-(4′-chlorophenyl)-4-oxobutanoic acid] | 55.5 | 
O=C(CC(Sc1ccc(Cl)cc1)C(=O)O)c1ccc(Cl)cc1 (stereo not drawn) [Ih-27, 2-(4′-chlorophenylthio)-4-(4′-chlorophenyl)-4-oxobutanoic acid] | 34.9 | 
Cc1ccc(SC(CC(=O)c2ccc(Cl)cc2)C(=O)O)cc1 (stereo not drawn) [Ih-28, 2-(4′-methylphenylthio)-4-(4′-chlorophenyl)-4-oxobutanoic acid] | 50.5 | 
O=C(O)c1cc(=O)c2ccccc2[nH]1 [Kynurenic acid] |  | glucagon secretion (result in words) [3]: stimulates; insulin secretion (result in words) [3]: stimulates the secretion of insulin
Nc1ccccc1C(=O)CC(N)C(=O)O (stereo not drawn) [Kynurenine] |  | hepatic glucose production in vitro (result in words) (primary hepatocytes [2]): powerful inhibitors of hepatic glucose production in vitro; glucagon secretion (result in words) [3]: stimulated; insulin secretion (result in words) [3]: stimulated
N[C@@H](Cc1c[nH]c2ccccc12)C(=O)O [Tryptophan, reference compound] |  | hepatic glucose production in vitro (result in words) (primary hepatocytes [2]): powerful inhibitors of hepatic glucose production in vitro; glucagon secretion (result in words) [3]: stimulates glucagon secretion in a glucose-dependent manner; insulin secretion (result in words) [3]: stimulates insulin secretion in a glucose-dependent manner
ethyl 2-(2′-naphthylthio)-4-phenyl-4-oxobutanoate [Ih-14] | 30.0 | 
